Several values for one entry are separate records, joined by “and”; a condition that tells them apart may be missing. Equal values may be shown once.
Experiments:
acute or chronic pain = settings: 60 mg of BCP daily, by day 4; 31 participants; cited from earlier work
[1] = system: concentration and attention of participants with Subjective Cognitive Decline; test: Cambridge Brain Sciences (CBS) Feature Match test; assay type: in vivo, human; settings: for Feature Match actual score: Week 4, normal 87-113; for Feature Match percentage change: Week 8, over 8 weeks
Source text: (§1) The Cambridge Brain Sciences (CBS) included a battery of four tests to measure various aspects of cognition and that affected different regions of the brain. Normal scores for each test ranged from 87 to 113.
The fourth test is the Feature Match (aka Feature Selection), which addresses concentration and attention, and correlates well with aging. It can detect early Alzheimer's disease, and non-Alzheimer's dementia.
(§2) The data are presented as mean±standard deviation (S.D.) at baseline, week 4, and week 8. Results from the Cognitive Failures Questionnaire and Cambridge Brain Sciences are compared using the Student's t-test in each intervention group between baseline and week 4 and between baseline and week 8. Significance was defined as p≤0.05. At each time point, the percentage change was compared with the values at baseline. This calculation was only obtained from the means between each time point, and the statistical analysis was not made on these percentage changes.
(§3) For Cambridge Brain Sciences tests, some responses were flagged as being a highly unusual response (found in less than 1% of Cambridge Brain Sciences normative database). […] These scores were considered to be invalid and excluded from the final analysis. For each participant, the combined mean scores of all four CBS tests were summed for at baseline and at week 8. The participants were then grouped according to these mean baseline score of all four tests as: below average (less than or equal to 100) and average and above (greater than 100).

[2] = system: cognitive function of participants with Subjective Cognitive Decline; test: Cambridge Brain Sciences (CBS) battery, combined means of all four tests; assay type: in vivo, human
Source text: as §1, §3

salivary testosterone = settings: olfactory exposure to 3% BCP over 20 minutes, women with low libido; cited from earlier work
[3] = system: visuospatial and working memory of participants with Subjective Cognitive Decline; test: Cambridge Brain Sciences (CBS) Monkey Ladder test; assay type: in vivo, human; settings: for Monkey Ladder actual score: Week 4, normal 87-113
Source text: as §1
The third test is the Monkey Ladder, which relates visuospatial and working memory. The test can detect early Alzheimer's disease, non-Alzheimer's dementia, and age-related cognitive decline. The parts of the brain involved included: the mid-dorsolateral prefrontal cortex, premotor cortex, and posterior parietal cortex.
as §2, §3

[4] = system: concentration and response inhibition of participants with Subjective Cognitive Decline; test: Cambridge Brain Sciences (CBS) Double Trouble test; assay type: in vivo, human; settings: for Double Trouble actual score: Week 4, normal 87-113
Source text: as §1
The second test is Double Trouble and addresses concentration and response inhibition. It can detect early Alzheimer's disease and age-related cognitive decline. It has a high reproducibility and is useful in distinguishing impaired and unimpaired aging. The parts of the brain involved include the right prefrontal cortex and dorsolateral region.
as §2, §3

[5] = system: reasoning and planning of participants with Subjective Cognitive Decline; test: Cambridge Brain Sciences (CBS) Spatial Planning test; assay type: in vivo, human
Source text: as §1
The first test is the Spatial Planning test, which addresses reasoning and planning. It tests for non-Alzheimer's dementia but has a high correlation with aging. It has a high reproducibility and is useful to distinguish impaired and unimpaired populations. The parts of the brain implicated include: frontal lobe, mid-dorsolateral frontal cortex, caudate nucleus, thalamus, lateral premotor, and anterior cingulate.
as §2, §3

[6] = one capsule daily (90 mg BCP), N=24
[7] = two capsules daily (180 mg BCP), N=25
[8] = two capsules daily (180 mg BCP)
[9] = one capsule daily (90 mg BCP), all participants
[10] = one capsule daily (90 mg BCP), baseline mean greater than 100
[11] = one capsule daily (90 mg BCP), baseline mean less than or equal to 100
[12] = two capsules daily (180 mg BCP), all participants
[13] = two capsules daily (180 mg BCP), baseline mean greater than 100
[14] = two capsules daily (180 mg BCP), baseline mean less than or equal to 100
[15] = one capsule daily (90 mg BCP), N=23
[16] = one capsule daily (90 mg BCP), Week 8, over 8 weeks
[17] = one capsule daily (90 mg BCP), N=25
[18] = two capsules daily (180 mg BCP), N=22
[19] = one capsule daily (90 mg BCP), N=26

C=C1CC/C=C(\C)CC[C@@H]2[C@@H]1CC2(C)C [BCP, beta-caryophyllene]
% of participants reporting mitigation of pain (acute or chronic pain): 60%
Feature Match: % of participants with no change between baseline and week 8 [1, 6]: (13%)
Feature Match: number of participants improved between baseline and week 8 [1, 6]: 13
Feature Match: number of participants with no change between baseline and week 8 [1, 6]: 3
Feature Match: number of participants worsened between baseline and week 8 [1, 6]: 8
Feature Match actual score ([1]; one capsule daily (90 mg BCP)): 98.3 ± 6.9
Feature Match percentage change ([1]; one capsule daily (90 mg BCP)): +2.0%
Feature Match: % of participants with no change between baseline and week 8 [1, 7]: (16%)
Feature Match: number of participants improved between baseline and week 8 [1, 7]: 10
Feature Match: number of participants with no change between baseline and week 8 [1, 7]: 4
Feature Match: number of participants worsened between baseline and week 8 [1, 7]: 11
Feature Match actual score [1, 8]: 98.4 ± 7.6
Feature Match percentage change [1, 8]: No change
% of subjects with sub-optimal baseline score (less than 87) who improved to a normal score on any test ([2]; one capsule daily (90 mg BCP), during the 8-week study): 31%
Mean of four tests scores at week 8 [2, 9]: 99.8
Percentage change (mean ± S.D.) of mean of four tests scores, baseline to week 8 [2, 9]: 3.6±10.0%
Mean of four tests scores at week 8 [2, 10]: 108.7
Percentage change (mean ± S.D.) of mean of four tests scores, baseline to week 8 [2, 10]: −0.7±9.4%
Mean of four tests scores at week 8 [2, 11]: 96.8
Percentage change (mean ± S.D.) of mean of four tests scores, baseline to week 8 [2, 11]: 5.0±9.8% and 5%
Mean of four tests scores at week 8 [2, 12]: 101.0
Percentage change (mean ± S.D.) of mean of four tests scores, baseline to week 8 [2, 12]: 4.6±12.1%
Mean of four tests scores at week 8 [2, 13]: 104.2
Percentage change (mean ± S.D.) of mean of four tests scores, baseline to week 8 [2, 13]: −1.5% and −1.5 ± 7.5%
Mean of four tests scores at week 8 [2, 14]: 98.8
Percentage change (mean ± S.D.) of mean of four tests scores, baseline to week 8 [2, 14]: 9.0±12.9% and 9%
Salivary testosterone vs. control period (salivary testosterone): increased
Monkey Ladder: % of participants with no change between baseline and week 8 [3, 15]: (4%)
Monkey Ladder: number of participants improved between baseline and week 8 [3, 15]: 16
Monkey Ladder: number of participants with no change between baseline and week 8 [3, 15]: 1
Monkey Ladder: number of participants worsened between baseline and week 8 [3, 15]: 6
Monkey Ladder actual score ([3]; one capsule daily (90 mg BCP)): 103.8 ± 6.7
Monkey Ladder percentage change [3, 16]: +2.5%
Monkey Ladder: % of participants with no change between baseline and week 8 [3, 7]: (28%)
Monkey Ladder: number of participants improved between baseline and week 8 [3, 7]: 17
Monkey Ladder: number of participants with no change between baseline and week 8 [3, 7]: 7
Monkey Ladder: number of participants worsened between baseline and week 8 [3, 7]: 1
Monkey Ladder actual score [3, 8]: 103.7 ± 8.1
Double Trouble: number of participants improved between baseline and week 8 [4, 17]: 15
Double Trouble: number of participants with no change between baseline and week 8 [4, 17]: 0
Double Trouble: number of participants worsened between baseline and week 8 [4, 17]: 9
Double Trouble: % of participants with sub-optimal score ([4]; one capsule daily (90 mg BCP), week 8 (56% at baseline)): 44%
Double Trouble actual score ([4]; one capsule daily (90 mg BCP)): 93 ± 15
Double Trouble percentage change [4, 16]: +5.3%
Double Trouble: % of participants with no change between baseline and week 8 [4, 18]: (14%)
Double Trouble: number of participants improved between baseline and week 8 [4, 18]: 14
Double Trouble: number of participants with no change between baseline and week 8 [4, 18]: 3
Double Trouble: number of participants worsened between baseline and week 8 [4, 18]: 5
Double Trouble actual score [4, 8]: 97.3 ± 15.2
Spatial Planning: % of participants with no change between baseline and week 8 [5, 19]: (8%)
Spatial Planning: number of participants improved between baseline and week 8 [5, 19]: 19
Spatial Planning: number of participants with no change between baseline and week 8 [5, 19]: 2
Spatial Planning: number of participants worsened between baseline and week 8 [5, 19]: 5
Spatial Planning actual score ([5]; one capsule daily (90 mg BCP), Week 4, normal 87-113): 104 ± 9
Spatial Planning percentage change [5, 16]: +2.3%
Spatial Planning: % of participants with no change between baseline and week 8 [5, 7]: (8%)
Spatial Planning: number of participants improved between baseline and week 8 [5, 7]: 18
Spatial Planning: number of participants with no change between baseline and week 8 [5, 7]: 2
Spatial Planning: number of participants worsened between baseline and week 8 [5, 7]: 5

— patent US11911346B2, “Orally administrated therapeutic for treating mild cognitive impairment (MCI) and improving human cognitive function” (BrainCare LLC, priority 2021, dated 2024)
